Data from patent US10758513B2, “Modulators of mitochondrial protein import” (THE REGENTS OF THE UNIVERSITY OF CALIFORNIA, priority 2011, dated 2020).

How the values were obtained:
[1] = system: tim10-1 tim9S mitochondria; experiment: In vitro import of radiolabeled precursors into tim10-1 tim9S mitochondria; type: biochemical, yeast; conditions: SAR study
Description: Prior to import into purified mitochondria, ^35S-methionine and cysteine labeled proteins were generated with TNT Quick Coupled Transcription/Translation kits (Promega) and plasmids carrying the gene of interest. Transcription of genes was driven by either a T7 or SP6 promoter. Import reactions were conducted according to established methods. After frozen mitochondria aliquots were thawed and added to the import buffer at a final concentration of 100 μg/mL, drug or DMSO vehicle was added as indicated. A final vehicle concentration of 1% was used in all experiments. Following 15 minute incubation at 25° C., import reactions were initiated by the addition of […] of translation mix. Aliquots were removed at intervals during the reaction timecourse and import was terminated with either cold buffer, 25 μg/mL trypsin, or a combination of both. If trypsin was added to digest unimported precursor protein, soybean trypsin inhibitor (STI) was subsequently added in excess after 15 minute incubation on ice. After a final recovery of by centrifugation (8,000×g, 5 minutes), mitochondria were disrupted in Laemmli sample buffer. Imports of membrane proteins (AAC, PiC, Tom40, Tim22, and Tim23) included a carbonate extraction step to remove proteins that had not inserted into the membrane (Koehler C M, et al. (1998), Science 279:369-373). Samples from import reaction time points were resolved by SDS polyacrylamide gel electrophoresis (SDSPAGE) and gels were dried prior to exposing to film.

[2] = target: T1, succinate dehydrogenase (Saccharomyces cerevisiae, UniProt Q00711); experiment: Succinate dehydrogenase activity in WT mitochondria (oxygen electrode); type: biochemical, yeast; conditions: 25 or 50 μM MitoBloCK-6; 20 mM malonate control
T1 construct: endogenous in cells; host or cells: mitochondria isolated from WT yeast
Description: (A) 160 μM insulin was reacted with 3 units of PDI in the presence of buffer, 1 mM bacitracin, or MitoBloCK-6 (MB-6). Reduction of insulin chains was initiated by the addition of DTT. The samples were incubated for 30 min at room temperature and then the turbidity was measured at a wavelength of 630 nm using a Bio-Tek plate-reader. (B) Succinate dehydrogenase activity was measured in WT mitochondria using a Clark-type oxygen electrode. Respiration was initiated with 10 mM succinate and, when steady-state respiration was established, 25 or 50 μM MitoBloCK-6, 50 μM ES-1, 50 μM ES-2, or 1% DMSO was added. Controls included 20 mM malonate that inhibits succinate dehydrogenase activity and CCCP that uncouples electron transport. The rate is reported as nmol O2 consumed/sec.
Oxygen consumption of WT mitochondria was measured using methods previously described (Claypool et al., 2008a). Briefly, purified WT mitochondria (25 mg/ml) were thawed on ice and tested within 2 hours. […] Consumption rate was monitored for approximately 2 min. MitoBloCK-6 or DMSO was then added to a final vehicle concentration of 1% and respiration was measured for another approximately 1.5 min. […] Consumption rate was monitored for approximately 3 mins. MitoBloCK-6, SAR compounds, or DMSO was then added and respiration measured for another 3 mins. […]

[3] = system: zebrafish embryos; experiment: Zebrafish embryo development; type: in vivo
Description: Zebrafish used for o-dianisidine staining of red blood cells in DMSO and MitoBloCK-6 treated fish were albino lines generated from crosses of TL and TU fish. Line AB were injected with the ALR morpholino. Lines were maintained in a 14-hr light/10-hr dark cycle and mated for one hour to obtain synchronized embryonic development. […] Following treatment, embryos were imaged using a Leica MZ16F fluorescent stereoscope (TexasRed filter set) at 5× magnification. […] Embryos were allowed to mature to 2 dpf and then imaged like the MitoBloCK-6 treated embryos; embryos were imaged at day 2 because of concerns with morpholino dilution. Images were resized to 300 dpi without resampling using Adobe Photoshop software.

[4] = system: tim10-1 tim9S mitochondria; experiment: Respiration (oxygen electrode) of tim10-1 tim9S mitochondria; type: biochemical, yeast; conditions: NADH; 25 μM MitoBloCK-1; CCCP as control
Description: Oxygen consumption of […] mitochondria was measured using methods previously described (8). Briefly, purified […] mitochondria aliquots (25 mg/mL) were thawed on ice and tested within 2 hours. A Clark-type oxygen electrode in a stirred, thermostatically controlled 1.5-ml chamber at 25° C. (Oxytherm; Hansatech) facilitated measurement. […] Consumption rate was monitored for approximately 2 min.

[5] = system: tim10-1 tim9S mitochondria; experiment: Membrane potential with rhodamine 123; type: biochemical, yeast; conditions: 25 μM MitoBloCK-1; CCCP as control
Description: Membrane potential measurement assays were conducted with a SPEX spectrofluorometer system (HORIBA Jobin Yvon) with a magnetically stirred cuvette held at 25° C. The quenching of rhodamine 123 fluorescence (Em, =530 nm and Ex=485 nm) was used as previously described (9) to detect changes in mitochondrial membrane potential. Purified tim10-1 tim9S mitochondrial aliquots were thawed and resuspended in respiration buffer (0.65 M mannitol, 0.3 mM EGTA, 3 mm tris-phosphate, 10 mM tris-maleate, pH 6.75). Trials were started by adding 100 nM of rhodamine 123 to respiration buffer. After a period of signal stabilization, mitochondria were added to a concentration of 100 μg/mL. Either drug or DMSO was then added to a final vehicle concentration of 1% following the establishment of baseline quenched fluorescence. Finally, mitochondria were uncoupled with 3 μM CCCP.

[6] = system: WT mitochondria; experiment: Respiration of WT mitochondria with NADH (oxygen electrode); type: biochemical, yeast; conditions: 25 μM MitoBloCK-6; CCCP control
Description: Oxygen consumption of WT mitochondria was measured using methods previously described (Claypool et al., 2008a). Briefly, purified WT mitochondria (25 mg/ml) were thawed on ice and tested within 2 hours. Oxygen consumption assays were performed with a Clark-type oxygen electrode in a stirred thermostatically controlled 1.5-ml chamber at 25° C. (Oxytherm, Hansatech). […] Consumption rate was monitored for approximately 2 min. […] Consumption rate was monitored for approximately 3 mins. MitoBloCK-6, SAR compounds, or DMSO was then added and respiration measured for another 3 mins. Uncoupled respiration was achieved as described above.

[7] = system: HeLa cells; experiment: Mitochondrial morphology in HeLa cells; type: cell-based; conditions: 50 μM 12-16 h, up to 100 μM, 20 μM CCCP control
Description: (A) HeLa cells were transiently transfected with Su9-EGFP. Following transfection, cells were treated for 12 hr with 50 μM MitoBloCK-6 or control 1% DMSO. As a positive control, cells were incubated with 20 μM CCCP to dissipate the membrane potential. Mitochondria were also stained with 10 μM MitoTracker Red. Mitochondrial morphology was assessed by fluorescence microscopy and the Mitotracker Red and GFP channels were superimposed (Merge). (B) The effect of MitoBloCK-6 on the viability of HeLa cells was assessed with a MTT-based toxicology assay. Cultured cells were treated for 12-16 hr with DMSO or 50 μM and 100 μM MitoBloCK-6. Bars display mean cell viability where 100% was defined as signal from untreated samples. Error bars display standard error of the mean (n=5). (C) The release of cyt c was investigated. Cells were treated with 1% DMSO or 50 μM MitoBloCK-6 for 12-16 hr and fractionated into mitochondrial (M) and cytosolic (C) fractions. Release of mitochondrial proteins was assessed by immunoblot analysis with antibodies against cyt c, Complex V (ATP synthase subunit alpha), pyruvate dehydrogenase (PDH), and cytosolic GAPDH. Treatment with 1 μM staurosporine for 4 hr induced apoptosis and was included as a positive control.
For microscopy experiments, HeLa or HEK293 cells were transiently transfected with Su9-EGFP (Lipofectamine, Invitrogen) at 80% confluency. […]

[8] = system: HeLa cells; experiment: Cyt c release assay by cell fractionation in HeLa cells; type: cell-based; conditions: 50 μM MitoBloCK-6 12-16 h, 1 μM staurosporine 4 h
Description: For cyt c release assays, a cell fractionation kit (MitoSciences) was used. Briefly, HeLa or HEK293 cells were grown in 10 cm^2 dishes to 80% confluency and then cells were treated with DMSO or MitoBloCK-6 in complete medium for 12-16 h. […] Cells were fractionated to obtain cytosolic and mitochondrial fractions; 100 μg of each fraction was analyzed by SDS-PAGE. Blots were probed with ApoTrack cyt c apoptosis antibody cocktail (MitoSciences).

[9] = target: T2, Erv1 (Saccharomyces cerevisiae, UniProt P27882); experiment: In vitro Erv1 oxidase activity, Amplex Red-HRP assay; type: biochemical, yeast; conditions: 100 μM
T2 construct: made in house
T2 sequence (P27882 1-189): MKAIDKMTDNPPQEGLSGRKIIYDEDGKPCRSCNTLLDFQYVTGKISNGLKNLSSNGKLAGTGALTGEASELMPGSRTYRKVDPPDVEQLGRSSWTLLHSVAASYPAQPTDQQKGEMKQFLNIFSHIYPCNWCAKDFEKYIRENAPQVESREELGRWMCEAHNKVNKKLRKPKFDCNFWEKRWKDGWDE
Description: The primary chemical screen used fresh recombinant Erv1 (in buffer 30 mM Hepes, pH 7.4, 100 mM NaCl, 1 mM EDTA) at a concentration of 10 μM, which was expressed as described previously. […] A Biomek FX (Beckman Coulter) was used to pin transfer 0.5 μl of compound from 1 mM stock or DMSO to respective wells. Approximate screening
concentration was 12.5 μM. After completed compound transfer, all plates were incubated at 25° C. in a humidified incubator for 1 hour. A Titertek multidrop was used to dispense 15 μl of Amplex Red-horseradish peroxidase (HRP) (Sigma) mix into all wells of the 384-well plate. The final concentration of Amplex Red and HRP were 46 μM and 0.092 U/ml, respectively. The Amplex Red-HRP solution was shielded from light during the entire experiment. The plates were incubated for an additional 10 min and then 15 μl of the substrate DTT (20 μM) was added to initiate the reduction of 02 to H2O2. […] Plates were then read at an endpoint using an excitation wavelength of 545 nm and an emission wavelength of 590 nm. […]
H2O2 production was measured using a standard fluorometric assay with Amplex Red and horseradish peroxidase (HRP). […] Fluorescence intensity was measured and reactions that were inhibited by more than 50% were picked as potential Erv1 inhibitors and selected for secondary analysis.

T1 sequence (Q00711 29-640): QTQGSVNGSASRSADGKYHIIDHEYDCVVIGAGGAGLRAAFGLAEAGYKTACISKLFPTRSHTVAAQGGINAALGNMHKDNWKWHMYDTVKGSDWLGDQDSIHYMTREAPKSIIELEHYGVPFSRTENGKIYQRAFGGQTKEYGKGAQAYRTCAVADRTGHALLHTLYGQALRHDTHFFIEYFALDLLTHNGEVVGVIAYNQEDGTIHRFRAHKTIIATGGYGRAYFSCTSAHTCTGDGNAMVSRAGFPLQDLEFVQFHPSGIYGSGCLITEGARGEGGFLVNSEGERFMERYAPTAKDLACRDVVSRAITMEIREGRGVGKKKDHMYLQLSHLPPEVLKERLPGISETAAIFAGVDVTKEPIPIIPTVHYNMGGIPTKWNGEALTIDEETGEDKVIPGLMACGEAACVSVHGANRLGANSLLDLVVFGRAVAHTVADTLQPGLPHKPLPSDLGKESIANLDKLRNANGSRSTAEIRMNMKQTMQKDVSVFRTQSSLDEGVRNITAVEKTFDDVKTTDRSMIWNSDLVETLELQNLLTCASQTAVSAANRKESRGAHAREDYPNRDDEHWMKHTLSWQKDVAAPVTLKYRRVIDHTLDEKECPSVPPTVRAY
T1 sequence (P21801 21-266 partner): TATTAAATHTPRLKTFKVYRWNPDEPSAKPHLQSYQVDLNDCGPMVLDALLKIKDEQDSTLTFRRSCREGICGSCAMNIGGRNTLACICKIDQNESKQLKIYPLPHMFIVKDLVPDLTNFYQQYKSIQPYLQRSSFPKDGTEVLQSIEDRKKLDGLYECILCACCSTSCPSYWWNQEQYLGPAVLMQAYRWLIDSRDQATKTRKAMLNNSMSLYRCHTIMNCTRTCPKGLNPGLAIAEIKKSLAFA
T1 sequence (P33421 51-198 partner): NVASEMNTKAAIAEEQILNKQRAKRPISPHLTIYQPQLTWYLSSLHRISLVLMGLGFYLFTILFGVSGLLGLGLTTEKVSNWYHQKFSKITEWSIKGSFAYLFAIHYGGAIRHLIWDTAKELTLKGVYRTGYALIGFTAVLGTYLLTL
T1 sequence (P37298 32-181 partner): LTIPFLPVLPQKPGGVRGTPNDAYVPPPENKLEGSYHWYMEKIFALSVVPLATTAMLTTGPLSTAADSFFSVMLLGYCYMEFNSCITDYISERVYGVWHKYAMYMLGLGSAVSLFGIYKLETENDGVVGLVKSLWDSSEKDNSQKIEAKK

Cc1ccc2c(c1)C1CCC/C(=N\NC(N)=S)C1N2C (stereo not shown) [Analog B]
inhibition of import of AAC by analogs [1]: Analog D was the only compound to inhibit import of AAC

O=C(O)CC(=O)O [malonate]
succinate dehydrogenase activity (oxygen consumption rate with succinate) [2]: disrupted

ALR morpholino: ATG morpholino targeted to zebrafish ALR protein (GAGGGTTGCCAGATCTCTGTTAAAT) (all phosphorodiamidate morpholino (PMO)) [reference compound]
phenotypes of morpholino-injected embryos ([3]; 4 ng injected in 1-cell embryos): identical to that of MitoBlock-6 exposure
decreased heart rate ([3]; embryos treated with MitoBloCK-6 or ALR morpholino): 25%

N#CC(C#N)=NNc1cccc(Cl)c1 [CCCP, carbonyl cyanide m-chlorophenylhydrazone, reference compound]
rate of respiration [4]: respiration increased drastically
rhodamine 123 fluorescence (membrane potential) [5]: sharp increase in fluorescence
oxygen consumption rate (NADH respiration) [6]: respiration increased drastically
mitochondrial network / morphology [7]: caused the mitochondrial network to collapse around the nucleus

CN[C@@H]1C[C@H]2O[C@@](C)([C@@H]1OC)n1c3ccccc3c3c4c(c5c6ccccc6n2c5c31)C(=O)NC4 [staurosporine]
cyt c release [8]: showed cyt c release

O=Cc1cc(Cl)cc(Cl)c1O [3,5-dichlorosalicylaldehyde, reference compound]
Erv1 activity [9]: did not inhibit Erv1 activity
